The values below come from patent US20040204577A1, “Novel peptide-forming enzyme gene” (Ajinomoto Co., Inc., priority 2003, published 2004).

Assay [1] has as its system peptide-forming enzyme (Mono S fraction enzyme). Kind of assay: Enzyme inhibitors: effects on the production of L-alanyl-L-glutamine. Format: biochemical, Empedobacter brevis. The following applies: for Inhibition of the enzyme (in words): serine enzyme inhibitors at 10 mM.
Assay [2] shares this test system. In words: Enzyme substrate specificity (1)-(10), (13), (14): peptide production. The assay is classed as biochemical, Empedobacter brevis. The following applies: carboxy component 40 mM, amine component 40 mM, 0.1 unit enzyme, 25° C., reaction time 3 hr. More on the design: key: +: those peptides for which production was confirmed but which were unable to be quantified due to the absence of a standard; a trace amount. Here is the method: Ester specificity was examined in the case of using L-amino acid ester for the carboxy component. 2 μl of the same enzyme fraction as used in Example 5 was added to 100 μl of 100 mM borate buffer (pH 9.0) containing the carboxy components indicated in Table 4 at 100 mM, 200 mM L-glutamine and 10 mM EDTA, and allowed to react at 25° C. for 2 hours. HCl represents hydrochloride in Table 4.
Peptide production was examined in the case of using L-alanine methyl ester for the carboxy component and using various L-amino acids for the amine component.
Peptide production was examined in the case of using various types of L-amino acid methyl esters for the carboxy component and using L-glutamine for the amine component. 2 μl of the same enzyme fraction as used in Example 5 was added to 100 μl of 100 mM borate buffer (pH 9.0) containing the L-amino acid methyl ester hydrochloride salts (AA-OMe.HCl) shown in Table 6 at 100 mM, 150 mM L-glutamine and 10 mM EDTA, and allowed to react at 25° C. for 3 hours. […] Furthermore, Tween-80 was added to the reaction system to a final concentration of 0.1% in the case of using L-Trp-OMe and L-Tyr-OMe.
Peptide production was examined in the case of using various L-amino acid methyl esters for the carboxy component and various L-amino acids for the amine component. 2 μl of the same enzyme fraction as used in Example 5 was added to 100 μl of 100 mM borate buffer (pH 9.0) containing the L-amino acid methyl ester hydrochloride salts (AA-OMe.HCl) shown in Table 7 at 100 mM, the L-amino acids shown in Table 7 at 150 mM and 10 mM EDTA, and allowed to react at 25° C. for 3 hours. The “tr” indicates a trace amount. Furthermore, Tween-80 was added to the reaction system to a final concentration of 0.1% in the case of using L-Trp-OMe.
Peptide production was examined in the case of using the L or D forms of various amino acid methyl esters for the carboxy component, and the L or D forms of various amino acids for the amine component. 2 μl of the same enzyme fraction as used in Example 5 was added to 100 μl of 100 mM borate buffer (pH 9.0) containing the various amino acid methyl ester hydrochloride salts (AA-OMe HCl) shown in Table 8 at 100 mM, the various amino acids shown in Table 8 at 150 mM and 10 mM EDTA, and allowed to react at 25° C. for 3 hours. The “tr” indicates a trace amount.
Peptide production was examined using various L-amino acid amides for the carboxy component, and various L-amino acids for the amine component. 2 μl of the same enzyme fraction as that used in Example 5 was added to 100 μl of 100 mM borate buffer (pH 9.0) containing the L-amino acid amide hydrochloride salt (M-NH2.HCl) shown in Table 9 at 100 mM, the L-amino acids shown in Table 9 at 150 mM and 10 mM EDTA, and allowed to react at 25° C. for 3 hours.
Peptide production was examined in the case of using various L-alanine methyl esters for the carboxy component and C-protected L-amino acids for the amine component. 2 μl of the same enzyme fraction as used in Example 5 was added to 100 μl of 100 mM borate buffer (pH 9.0) containing the L-alanine methyl ester hydrochloride hydrochloride salt (Ala-OMe.HCl) shown in Table 10 at 100 mM, the L-amino acid amide hydrochloride salts shown in Table 10 at 150 mM and 10 mM EDTA, and allowed to react at 25° C. for 3 hours.
Peptide production was examined in the case of using various amino acid methyl esters for the carboxy component and methylamine for the amine component. 2 μl of the same enzyme fraction as used in Example 5 was added to 100 μl of 100 mM borate buffer (pH 9.0) containing the amino acid methyl ester hydrochloride salt (M-OMe.HCl) shown in Table 11 at 100 mM, the methylamine shown in Table 11 at 150 mM and 10 mM EDTA, and allowed to react at 25° C. for 3 hours.
Peptide production was examined in the case of using […] for the carboxy component or β-amino acid for the amine component.

In assay [3] the test system is enzyme derived from Sphingobacterium sp. strain FERM BP-8124 (SP-Sepharose HP fraction enzyme). In words: Enzyme substrate specificity (11), (12): peptide production. Format: biochemical. The following applies: carboxy component 100 mM, amine component 150 mM, 0.33 units enzyme, pH 9.0, 25° C., 1.5 hours. The procedure, abridged: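 Peptide and oligopeptide formation catalysed by SP-Sepharose HP-fraction enzyme from Sphingobacterium sp. FERM BP-8124; carboxy components used as hydrochloride salts, 0.1% Tween-80 final added with L-Tyr-OMe. Products quantified; "+" denotes detected but unquantified (no standard), "tr" trace.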

Assay [4] deals with peptide-forming enzyme (Mono S fraction enzyme). Kind of assay: Enzyme substrate specificity (1)-(10), (13), (14): peptide production. Format: biochemical, Empedobacter brevis. The following applies: pH 9.0, 25° C., 3 hours; for Formed peptide: L-amino acid methyl ester hydrochloride 100 mM, L-amino acid 150 mM. In a few lines:
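Mono S enzyme fraction in 100 mM borate buffer (pH 9.0) with 10 mM EDTA and 100 mM carboxy component (amino acid methyl esters or amides); amine components (L-glutamine, amino acids, amino acid amides or methylamine) at 150 mM, or 200 mM L-glutamine with varied esters. Reactions ran at 25° C for 2–3 hours; 0.1% Tween-80 added for Trp/Tyr-OMe.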

The test system of assay [5] is microbial cells of Empedobacter brevis strain FERM BP-8113. Kind of assay: Production of peptide using microbial cells. Format: cell-based. Conditions: 1 mL cell suspension (100 g/L) + 1 mL buffer with 200 mM carboxy component (hydrochloride) and 400 mM amino acid; borate buffer pH 9.0, 10 mM EDTA; 18° C., 2 hours. Here is the method: A 50 mL medium (pH 6.2) containing 5 grams (g) of glucose, 5 g of ammonium sulfate, 1 g of monopotassium phosphate, 3 g of dipotassium phosphate, 0.5 g of magnesium sulfate, 10 g of yeast extract and 10 g of peptone in 1 liter (L) was transferred to a 500 mL Sakaguchi flask and sterilized at 115° C. for 15 minutes. This medium was then inoculated with one loopful cells of Empedobacter brevis strain FERM BP-8113 (Depositary institution: the independent administrative corporation, National Institute of Advanced Industrial Science and Technology, International Patent Organism Depositary, Address of depositary institution: Chuo Dai-6, 1-1 Higashi 1-Chome, Tsukuba-shi, Ibaraki-ken, Japan, International deposit transfer date: Jul. 8, 2002) that had been cultured at 30° C. for 16 hours in the same medium, followed by shake culturing at 30° C. for 16 hours and 120 strokes/min.

The nature of assay [6]: Comparison of ability to catalyze peptide formation with known enzymes. The assay is classed as biochemical. The following applies: for L-Ala-L-Gln production rate: 100 mM L-alanine methyl ester hydrochloride, 200 mM L-glutamine, pH 9.0, 25° C., enzyme added 0.02-3.60 protein mg/ml as in Table 14; for Ratio of L-Ala-L-Gln production rate per enzyme unit weight: enzyme of present invention = 100.0. The text has this:
The enzyme homogeneously purified in Example 3 was used as a source of the present enzyme of the present invention.

The test system of assay [7] is peptide-forming enzyme (Mono S fraction enzyme). Kind of assay: Production of L-alanyl-L-glutamine from L-alanine methyl ester and L-glutamine with enzyme fraction. Format: biochemical, Empedobacter brevis. Conditions: 100 mM L-alanine methyl ester hydrochloride, 200 mM L-glutamine, 10 mM EDTA, pH 9.0, 18° C.; FIG. 3. How it is done:
On the other hand, there was hardly any production of L-Ala-L-Gln observed in an enzyme-non-added lot, and the […] was only about 0.07 mM after reacting for 120 minutes.

[8] abbreviates: inhibitor at 10 mM, borate buffer pH 9.0, 25° C., 5 minutes, 100 = absence of enzyme inhibitor.

Where a SMILES comes first, the peptide text is derived from it. [ ]: non-standard residue; d: D form. 2Nal = N[C@@H](Cc1ccc2ccccc2c1)C(=O)O

In the case of `O=C(O)CN(CCN(CC(=O)O)CC(=O)O)CC(=O)O` [EDTA, ethylene diamine tetraacetic acid], the “Relative activity of L-Ala-L-Gln production” value (“Relative activity” for short) in assay [1] (setting [8]) came to 96%.
In the case of `NC(=O)CC[C@H](NC(=O)[C@@H](N)Cc1ccc2ccccc2c1)C(=O)O` [H-2-Nal-H-Gln-OH] (H-[2Nal]-Gln-OH), in assay [2], the Produced peptide entry is “tr”.
As to `CC[C@H](C)[C@H](N)C(=O)N[C@@H](CCSC)C(=O)O` [L-Ile-L-Met] (H-Ile-Met-OH), the “Produced peptide (Table 15-3)” value in assay [3] came out at 5.1 mM. Also, the figures for the Formed peptide in assay [4] and in assay [5] were 10.0 mM and 8.3 mM, respectively.
In the case of `N[C@@H](CO)C(=O)N[C@@H](CO)C(=O)O` [L-Ser-L-Ser] (H-Ser-Ser-OH), the “Produced peptide (Table 15-3)” value in assay [3] was 9.9 mM. Besides, the figures for the Formed peptide in assay [4] and in assay [5] were 38.0 mM and 29.0 mM, respectively.
In the same order, the values of `CC(C)C[C@H](NC(=O)[C@@H](N)[C@@H](C)O)C(=O)O` [L-Thr-L-Leu] (H-Thr-Leu-OH) are 15.3 mM, 28.4 mM and 23.0 mM.
Consider `CSCC[C@H](NC(=O)[C@@H](N)C(C)C)C(=O)O` [L-Val-L-Met] (H-Val-Met-OH), for which the “Produced peptide (Table 15-3)” value in assay [3] is listed as 6.8 mM. In addition, the Formed peptide is 10.3 mM in assay [4] and 10.5 mM in assay [5].
For `O=C(O)CI` [Monoiodoacetate], the “Relative activity” value in assay [1] (pH 9) came to 101%.
`CCN1C(=O)C=CC1=O` [N-Ethyl maleimide]: in assay [1] (setting [8]), the “Relative activity” value was determined as 110%.
For the molecule `O=S(=O)(F)Cc1ccccc1` [Phenylmethylsulfonyl fluoride, phenylmethylsulfonyl fluoride], in assay [1] (setting [8]), the “Relative activity” value was determined as 115%. Besides, the “Inhibition of the enzyme (in words)” value in assay [1] was “not inhibited”.
For the molecule `c1cnc2c(c1)ccc1cccnc12` [o-Phenanthroline, o-phenanthroline], in assay [1] (setting [8]), the “Relative activity” value was 96%.
As to `N=C(N)Nc1ccc(C(=O)Oc2ccc([N+](=O)[O-])cc2)cc1` [p-Nitrophenyl-p′-guanidino benzoate, p-nitrophenyl-p′-guanidinobenzoate], in assay [1] (setting [8]), the “Relative activity” value is reported as 0.1%. For the same molecule, in assay [1], the “Inhibition of the enzyme (in words)” value was “inhibited”.
Regarding Bromelain, in assay [6], the L-Ala-L-Gln production rate is recorded as 0.0062 mM/min and the “Ratio of L-Ala-L-Gln production rate per enzyme unit weight” value (“Ratio … per enzyme unit weight” for short) is reported as 0.0010.
In the same order, the values of “Chymopapain: thiol endopeptidase described in EP 359399B1, purified enzyme manufactured by Sigma” are 0.0100 mM/min and 0.0013.
In the same order, the values of Ficin are 0.0096 mM/min and 0.0017.
In assay [4] (L-amino acid ester 100 mM, peptide (amine component) 150 mM), L-Ala-L-Ala-L-Gln registered a Produced peptide of 15.2 mM. For the same molecule, in assay [7], the “Peptide formed, enzyme-added lot” value was 1.3 mM.

B1: Papain: thiol endopeptidase described in EP 359399B1, purified enzyme manufactured by Sigma (protein, UniProt P00784 134-345, looked up)
Papain: IPEYVDWRQKGAVTPVKNQGSCGSCWAFSAVVTIEGIIKIRTGNLNEYSEQELLDCDRRSYGCNGGYPWSALQLVAQYGIHYRNTYPYEGVQRYCRSREKGPYAAKTDGVRQVQPYNEGALLYSIANQPVSVVLEAAGKDFQLYRGGIFVGPCGNKVDHAVAAVGYGPNYILIKNSWGTGWGENGYIRIKRGTGNSYGVCGLYTSSFYPVKN
For B1, in assay [6], the L-Ala-L-Gln production rate is 0.0106 mM/min and the “Ratio … per enzyme unit weight” value is recorded as 0.0021.

B2: Carboxypeptidase Y: known enzyme described in EP 278787A1, purified enzyme manufactured by Sigma (protein, UniProt P00729 112-532, looked up)
Carboxypeptidase Y: KIKDPKILGIDPNVTQYTGYLDVEDEDKHFFFWTFESRNDPAKDPVILWLNGGPGCSSLTGLFFELGPSSIGPDLKPIGNPYSWNSNATVIFLDQPVNVGFSYSGSSGVSNTVAAGKDVYNFLELFFDQFPEYVNKGQDFHIAGESYAGHYIPVFASEILSHKDRNFNLTSVLIGNGLTDPLTQYNYYEPMACGEGGEPSVLPSEECSAMEDSLERCLGLIESCYDSQSVWSCVPATIYCNNAQLAPYQRTGRNVYDIRKDCEGGNLCYPTLQDIDDYLNQDYVKEAVGAEVDHYESCNFDINRNFLFAGDWMKPYHTAVTDLLNQDLPILVYAGDKDFICNWLGNKAWTDVLPWKYDEEFASQKVRNWTASITDEVAGEVKSYKHFTYLRVFNGGHMVPFDVPENALSMVNEWIHGGFSL
For B2, in assay [6], the L-Ala-L-Gln production rate is reported as 0.0257 mM/min and the “Ratio … per enzyme unit weight” value worked out at 0.0191.
